According to ChEMBL document CHEMBL2086323, “Anti-adipogenic chromone glycosides from Cnidium monnieri fruits in 3T3-L1 cells” (2012):
Active and inactive are the calls of the source. The calls are words filed in the database; no cut-off is given here.

Tests used:
3T3-L1 [1] = assay: Inhibition of adipogenesis in mouse 3T3L1 cells assessed as fat accumulation at 300 uM after 8 days by oil red O-staining based by ELISA plate reader; assay type: functional; conditions: 3T3-L1, 192 h
3T3-L1 [2] = assay: Inhibition of adipogenesis in mouse 3T3L1 cells assessed as fat accumulation at 300 uM after 2 to 8 days by oil red O-staining based by ELISA plate reader; assay type: functional, cell-based
3T3-L1 [3] = assay: Inhibition of adipogenesis in mouse 3T3L1 cells assessed as fat accumulation at 300 uM up to 4 days by oil red O-staining based by ELISA plate reader; assay type: functional, cell-based
3T3-L1 [4] = assay: Inhibition of adipogenesis in mouse 3T3L1 cells assessed as fat accumulation at 300 uM after 4 to 8 days by oil red O-staining based by ELISA plate reader; assay type: functional, cell-based
3T3-L1 [5] = assay: Inhibition of adipogenesis in mouse 3T3L1 cells assessed as fat accumulation at 300 uM up to 2 days by oil red O-staining based by ELISA plate reader; assay type: functional, cell-based
3T3-L1 [6] = assay: Inhibition of adipogenesis in mouse 3T3L1 cells assessed as fat accumulation at 300 uM after 2 to 4 days by oil red O-staining based by ELISA plate reader; assay type: functional, cell-based
3T3-L1 [7] = assay: Inhibition of adipogenesis in mouse 3T3L1 cells assessed as fat accumulation at 100 uM after 8 days by oil red O-staining based by ELISA plate reader; assay type: functional; conditions: 3T3-L1, 192 h

| Compound | inhibition at 300 µM (3T3-L1 [1]) | further results |
| --- | --- | --- |
| C/C(=C/Cc1c(O[C@@H]2O[C@H](CO)[C@@H](O)[C@H](O)[C@H]2O)cc2oc(C)cc(=O)c2c1O)CO | 87% |  |
| C/C(=C/Cc1c(O)cc2oc(C)cc(=O)c2c1O)CO[C@@H]1O[C@H](CO)[C@@H](O)[C@H](O)[C@H]1O [CNIDIMOSIDE A] | 75% |  |
| COc1cc2oc(C)cc(=O)c2c(O)c1C/C=C(/C)CO[C@@H]1O[C@H](CO)[C@@H](O)[C@H](O)[C@H]1O [CNIDIMOSIDE B] | 14.7% | inhibition (3T3-L1 [2]): Active; inhibition (3T3-L1 [3]): Active; inhibition (3T3-L1 [4]): Active; inhibition (3T3-L1 [5]): Active; inhibition (3T3-L1 [6]): Active |
| C/C(=C/Cc1c(O)cc2oc(CO)cc(=O)c2c1O)CO[C@@H]1O[C@H](CO)[C@@H](O)[C@H](O)[C@H]1O [HYDROXYCNIDIMOSIDE A] | 73.1% |  |
| C/C(=C/Cc1c(O[C@@H]2O[C@H](CO)[C@@H](O)[C@H](O)[C@H]2O)cc2oc(CO)cc(=O)c2c1O)CO [MONNIERISIDE B] | 68.9% |  |
| C=C(C)C(Cc1c(O)cc2oc(C)cc(=O)c2c1O)O[C@@H]1O[C@H](CO)[C@@H](O)[C@H](O)[C@H]1O (stereo partly drawn) [MONNIERISIDE C] | 79.9% |  |
| C=C(C)C(Cc1c(O)cc2oc(CO)cc(=O)c2c1O)O[C@@H]1O[C@H](CO)[C@@H](O)[C@H](O)[C@H]1O (stereo partly drawn) [MONNIERISIDE D] | 85.5% |  |
| C=C(C)C(O)Cc1c(O[C@@H]2O[C@H](CO)[C@@H](O)[C@H](O)[C@H]2O)cc2oc(CO)cc(=O)c2c1O (stereo partly drawn) [MONNIERISIDE E] | 82.2% |  |
| C=C(C)C1Cc2c(cc3oc(CO[C@@H]4O[C@H](CO)[C@@H](O)[C@H](O)[C@H]4O)cc(=O)c3c2O)O1 (stereo partly drawn) [MONNIERISIDE F] | 97.1% |  |
| Cc1cc(=O)c2c(O)c3c(cc2o1)OC(C(C)(C)O[C@@H]1O[C@H](CO)[C@@H](O)[C@H](O)[C@H]1O)C3 (stereo partly drawn) [MONNIERISIDE G] | 99.7% |  |
| Oc1ccc(/C=C/c2cc(O)cc(O)c2)cc1 [RESVERATROL] |  | inhibition at 100 µM (3T3-L1 [7]): 19.4% |
| C=C(C)C1Cc2c(cc3oc(CO)cc(=O)c3c2O)O1 (stereo not drawn) [UMTATIN] | 89.4% |  |
| Cc1cc(=O)c2c(O)cc(O[C@@H]3O[C@H](CO)[C@@H](O)[C@H](O)[C@H]3O)cc2o1 [UNDULATOSIDE A] | 88.5% |  |
